Read-outs that look alike come from different tables or passages of the source. Marks after values point to notes of the source that are not given here.

This is an account of results in patent US11771738B2 (Zoetis Services LLC, priority 2018, dated 2023).

What all share (assay type): cell-based
In assay [1] the test system is microfilariae of Dirofilaria immitis. Description: Dirofilaria immitis, Microfilaria (DiMf) In Vitro Assay. To be noted: for minimal effective concentration: Dirofilaria immitis, 72 h, read-out: DiMf MED, Minimum Effective Dose, D. immitis microfilariae motility, in vitro.
The subject of assay [2] is third stage larvae of Haemonchus contortus. Description: Haemonchus contortus, Larvae Stage 3 (HcL3) In Vitro Assay. The note with it: for minimal effective concentration: Haemonchus contortus, 96 h; for HcL3 MED: Minimum Effective Dose, H. contortus third stage larvae, approximately 96 hours.
The subject of the next assay is D. immitis L4 larvae. As to the kind of experiment: Dirofilaria immitis, L4 Stage (DiL4) In Vitro Assay. The note with it: for minimal effective concentration: Dirofilaria immitis, 72 h, read-out: DiL4 MED, Minimum Effective Dose, D. immitis L4 larvae motility, in vitro; for DiMf/DiL4: larval stage selectivity, ratio of DiMf MED to DiL4 MED; for DiL4 MED: Minimum Effective Dose, D. immitis L4 larvae motility, in vitro.

Setting [3] is: read-out: HcL3 MED, Haemonchus contortus third stage larvae in vitro, class mark appended to the Ex # in Table 3.
Setting [4] is: read-out: HcL3 MED, Minimum Effective Dose, H. contortus third stage larvae, approximately 96 hours.
[5] abbreviates: read-out: HcL3 MED, approximately 96 hours incubation, multiple-resistant field isolate.
The mark [6] stands for this setting: read-out: HcL3 MED (symbol after Ex#), approximately 96 hours incubation, multiple-resistant field isolate.

In the case of `CC(C)C[C@H]1C(=O)O[C@H](Cc2ccc(Cc3cccnc3F)cc2)C(=O)N(C)[C@@H](CC(C)C)C(=O)O[C@H](C)C(=O)N(C)[C@@H](CC(C)C)C(=O)O[C@H](Cc2ccc(Cc3cccnc3F)cc2)C(=O)N(C)[C@@H](CC(C)C)C(=O)O[C@H](C)C(=O)N1C` [Example 3-323, (3S,6R,9S,12R,15S,18R,21S,24R)-6,18-bis(4-((2-fluoropyridin-3-yl)methyl)benzyl)-3,9,15,21-tetraisobutyl-4,10,12,16,22,24-hexamethyl-1,7,13,19-tetraoxa-4,10,16,22-tetraazacyclotetracosan-2,5,8,11,14,17,20,23-octaone], the minimal effective concentration was 0.001 µM in assay [1]; less than 1 µM in assay [2] (setting [3]); 0.3 µM in assay [2] (setting [4]); not above 1 µM in assay [2] (setting [5]); 0.0001 µM with D. immitis L4 larvae. Further, the DiMf/DiL4 in the assay with D. immitis L4 larvae turned out to be 10.

Turning to `CC(C)C[C@H]1C(=O)O[C@H](Cc2ccc(Cc3cncc(F)c3)cc2)C(=O)N(C)[C@@H](CC(C)C)C(=O)O[C@H](C)C(=O)N(C)[C@@H](CC(C)C)C(=O)O[C@H](Cc2ccc(Cc3cncc(F)c3)cc2)C(=O)N(C)[C@@H](CC(C)C)C(=O)O[C@H](C)C(=O)N1C` [Example 3-194, (3S,6R,9S,12R,15S,18R,21S,24R)-6,18-bis(4-((5-fluoropyridin-3-yl)methyl)benzyl)-3,9,15,21-tetraisobutyl-4,10,12,16,22,24-hexamethyl-1,7,13,19-tetraoxa-4,10,16,22-tetraazacyclotetracosan-2,5,8,11,14,17,20,23-octaone], the minimal effective concentration in assay [1] was 0.001 µM; in assay [2] (setting [4]), more than 100 µM; in the assay on D. immitis L4 larvae it was 0.001 µM. For the same compound, in the assay with D. immitis L4 larvae, the DiMf/DiL4 is given as 1.

For `Cc1ncccc1Cc1ccc(C[C@H]2OC(=O)[C@H](CC(C)C)N(C)C(=O)[C@@H](C)OC(=O)[C@H](CC(C)C)N(C)C(=O)[C@@H](Cc3ccccc3)OC(=O)[C@H](CC(C)C)N(C)C(=O)[C@@H](C)OC(=O)[C@H](CC(C)C)N(C)C2=O)cc1` [Example 4-139], the “DiMf MED” value in assay [1] (Minimum Effective Dose, D. immitis microfilariae motility, in vitro) was 1 nM. Besides, the “HcL3 MED” value in assay [2] stood at 1 µM. Further, in assay [2] (approximately 96 hours incubation, multiple-resistant field isolate), the “HcL3 MED (symbol after Ex#)” value was 4-139* (Examples with an asterisk (*) have HcL3 MED values≤1 μM). Further, in the assay on D. immitis L4 larvae, the “DiL4 MED” value is 0.4 nM and the DiMf/DiL4 is on record as 2.5.

For the compound `CC(C)C[C@H]1C(=O)O[C@H](Cc2ccc(Cc3ccc(F)cc3)cc2)C(=O)N(C)[C@@H](CC(C)C)C(=O)O[C@H](C)C(=O)N(C)[C@@H](CC(C)C)C(=O)O[C@H](Cc2ccccc2)C(=O)N(C)[C@@H](CC(C)C)C(=O)O[C@H](C)C(=O)N1C` [Example 2-4, (3S,6R,9S,12R,15S,18R,21S,24R)-6-benzyl-18-(4-(4-fluorobenzyl)benzyl)-3,9,15,21-tetraisobutyl-4,10,12,16,22,24-hexamethyl-1,7,13,19-tetraoxa-4,10,16,22-tetraazacyclotetracosan-2,5,8,11,14,17,20,23-octaone], the minimal effective concentration in assay [1] was 0.05 µM; in assay [2] (setting [6]), 1 to 3.3 µM; in assay [2] (setting [4]), 3.3 µM; with D. immitis L4 larvae, 0.0007 µM. In the assay on D. immitis L4 larvae, the DiMf/DiL4 is recorded as 71.4.

`CC(C)C[C@H]1C(=O)O[C@H](Cc2ccc(Cc3cccnc3OC(F)F)cc2)C(=O)N(C)[C@@H](CC(C)C)C(=O)O[C@H](C)C(=O)N(C)[C@@H](CC(C)C)C(=O)O[C@H](Cc2ccc(Cc3cccnc3OC(F)F)cc2)C(=O)N(C)[C@@H](CC(C)C)C(=O)O[C@H](C)C(=O)N1C` [Example 3-297, (3S,6R,9S,12R,15S,18R,21S,24R)-6,18-bis(4-((2-(difluoromethoxy)pyridin-3-yl)methyl)benzyl)-3,9,15,21-tetraisobutyl-4,10,12,16,22,24-hexamethyl-1,7,13,19-tetraoxa-4,10,16,22-tetraazacyclotetracosan-2,5,8,11,14,17,20,23-octaone]: the minimal effective concentration in assay [1] is 0.03 µM; in assay [2] (setting [4]), more than 10 µM; in the assay with D. immitis L4 larvae, 0.001 µM. Further, the DiMf/DiL4 in the assay on D. immitis L4 larvae amounted to 30.

For the compound `Cc1ncsc1Cc1ccc(C[C@H]2OC(=O)[C@H](CC(C)C)N(C)C(=O)[C@@H](C)OC(=O)[C@H](CC(C)C)N(C)C(=O)[C@@H](Cc3ccc(Cc4scnc4C)cc3)OC(=O)[C@H](CC(C)C)N(C)C(=O)[C@@H](C)OC(=O)[C@H](CC(C)C)N(C)C2=O)cc1` [Example 3-155, (3S,6R,9S,12R,15S,18R,21S,24R)-3,9,15,21-tetraisobutyl-4,6,10,16,18,22-hexamethyl-12,24-bis(4-((4-methylthiazol-5-yl)methyl)benzyl)-1,7,13,19-tetraoxa-4,10,16,22-tetraazacyclotetracosan-2,5,8,11,14,17,20,23-octaone], the minimal effective concentration is 0.0001 µM in assay [1]; less than 1 µM in assay [2] (setting [3]); 0.5 µM in assay [2] (setting [4]); not above 1 µM in assay [2] (setting [5]); 2e-05 µM in the assay on D. immitis L4 larvae. Besides, the DiMf/DiL4 in the assay on D. immitis L4 larvae turned out to be 5.

In the case of `COc1cccc(Cc2ccc(C[C@H]3OC(=O)[C@H](CC(C)C)N(C)C(=O)[C@@H](C)OC(=O)[C@H](CC(C)C)N(C)C(=O)[C@@H](Cc4ccc(Cc5cccc(OC)n5)cc4)OC(=O)[C@H](CC(C)C)N(C)C(=O)[C@@H](C)OC(=O)[C@H](CC(C)C)N(C)C3=O)cc2)n1` [Example 3-69, (3S,6R,9S,12R,15S,18R,21S,24R)-3,9,15,21-tetraisobutyl-6,18-bis(4-((6-methoxypyridin-2-yl)methyl)benzyl)-4,10,12,16,22,24-hexamethyl-1,7,13,19-tetraoxa-4,10,16,22-tetraazacyclotetracosan-2,5,8,11,14,17,20,23-octaone], the minimal effective concentration in assay [1] was 0.03 µM; in assay [2] (setting [3]), less than 1 µM; in assay [2] (setting [4]), 0.5 µM; in assay [2] (setting [5]), not above 1 µM; in the assay with D. immitis L4 larvae, 0.0007 µM. Moreover, in the assay with D. immitis L4 larvae, the DiMf/DiL4 was 42.9.

Regarding `CC(C)C[C@H]1C(=O)O[C@H](Cc2ccc(Cc3ccnc(F)c3F)cc2)C(=O)N(C)[C@@H](CC(C)C)C(=O)O[C@H](C)C(=O)N(C)[C@@H](CC(C)C)C(=O)O[C@H](Cc2ccc(Cc3ccnc(F)c3F)cc2)C(=O)N(C)[C@@H](CC(C)C)C(=O)O[C@H](C)C(=O)N1C` [Example 3-326, (3S,6R,9S,12R,15S,18R,21S,24R)-6,18-bis(4-((2,3-difluoropyridin-4-yl)methyl)benzyl)-3,9,15,21-tetraisobutyl-4,10,12,16,22,24-hexamethyl-1,7,13,19-tetraoxa-4,10,16,22-tetraazacyclotetracosan-2,5,8,11,14,17,20,23-octaone], the minimal effective concentration in assay [1] amounted to 0.03 µM; in assay [2] (setting [4]) it was 10 µM; with D. immitis L4 larvae it was 0.0003 µM. The DiMf/DiL4 in the assay on D. immitis L4 larvae is 100.

On to `Cc1cnsc1Cc1ccc(C[C@H]2OC(=O)[C@H](CC(C)C)N(C)C(=O)[C@@H](C)OC(=O)[C@H](CC(C)C)N(C)C(=O)[C@@H](Cc3ccc(Cc4sncc4C)cc3)OC(=O)[C@H](CC(C)C)N(C)C(=O)[C@@H](C)OC(=O)[C@H](CC(C)C)N(C)C2=O)cc1` [Example 4-141, (3S,6R,9S,12R,15S,18R,21S,24R)-3,9,15,21-tetraisobutyl-4,6,10,16,18,22-hexamethyl-12,24-bis(4-((4-methylisothiazol-5-yl)methyl)benzyl)-1,7,13,19-tetraoxa-4,10,16,22-tetraazacyclotetracosan-2,5,8,11,14,17,20,23-octaone], for which the minimal effective concentration in assay [1] was 0.003 µM; in assay [2] (setting [6]), 1 to 3.3 µM. For the same compound, the “HcL3 MED” value in assay [2] (listed as (4-141)) was found to be 1.8 µM. The “DiL4 MED” value with D. immitis L4 larvae (listed as (4-141)) was found to be 1 nM. In addition, the DiMf/DiL4 in the assay with D. immitis L4 larvae (listed as (4-141)) came out at 3.

Take `CC(C)C[C@H]1C(=O)O[C@H](Cc2ccc([C@@H](C)c3nccs3)cc2)C(=O)N(C)[C@@H](CC(C)C)C(=O)O[C@H](C)C(=O)N(C)[C@@H](CC(C)C)C(=O)O[C@H](Cc2ccc([C@@H](C)c3nccs3)cc2)C(=O)N(C)[C@@H](CC(C)C)C(=O)O[C@H](C)C(=O)N1C` [Example 3-291, (3S,6R,9S,12R,15S,18R,21S,24R)-3,9,15,21-tetraisobutyl-4,6,10,16,18,22-hexamethyl-12,24-bis(4-((R)-1-(thiazol-2-yl)ethyl)benzyl)-1,7,13,19-tetraoxa-4,10,16,22-tetraazacyclotetracosan-2,5,8,11,14,17,20,23-octaone]: the minimal effective concentration in assay [1] was 0.0003 µM; in assay [2] (setting [3]) it was less than 1 µM; in assay [2] (setting [4]), 0.3 µM; in assay [2] (setting [5]), not above 1 µM; with D. immitis L4 larvae, 0.0001 µM. For the same compound, the DiMf/DiL4 in the assay on D. immitis L4 larvae is listed as 3.
